Assay: Phase 1 study: safety and tolerability (TEAEs, NCI CTCAE v5.0)
Description: The study employed an open-label, 3+3 design, with the option of adding backfill patients to each cohort cleared and deemed safe. […] Tumor responses were assessed every 2 cycles using RECIST v1.1 criteria. […] The study also involves an ongoing dose escalation study where participants receive 100 mg, 200 mg, 300 mg, 400 mg, and 600 mg once daily (QD) dose levels.
Safety was assessed through the analysis of the reported incidence of treatment-emergent AEs. Treatment-emergent AEs are those with an onset on or after the initiation of therapy and will be graded according to NCI CTCAE Version 5.0. Other safety endpoints, including laboratory results, vital signs, and ECG findings, were summarized for all patients in the Safety set.

[1] = Cohort 2/200 mg QD, patient 1, first listed event
[2] = Cohort 2/200 mg QD, patient 1, second listed event

## O=C1CC[C@H](N2Cc3cc(N4CCN(CC5CCN(c6ccc([C@@H]7c8ccc(O)cc8OC[C@@H]7c7ccccc7)cc6F)CC5)CC4)ccc3C2=O)C(=O)N1 [compound (1-g), (S)-3-(5-(4-((1-(2-fluoro-4-((3S,4R)-7-hydroxy-3-phenylchroman-4-yl)phenyl)piperidin-4-yl)methyl)piperazin-1-yl)-1-oxoisoindolin-2-yl)piperidine-2,6-dione]
400 mg QD (N = 6)
  TEAE: Nausea: 1 (16.7) n (%)
  TEAE: Neutrophil Count Decreased: 2 (33.3) n (%)
  TEAE: Oedema Peripheral: 1 (16.7) n (%)
  TEAE: Ophthalmic Migraine: 0 n (%)
  TEAE: Oral Pain: 0 n (%)
  TEAE: Pain In Extremity: 0 n (%)
  TEAE: Pharyngitis: 0 n (%)
  TEAE: Platelet Count Decreased: 1 (16.7) n (%)
  TEAE: Pleural Effusion: 0 n (%)
  TEAE: Pneumonia: 0 n (%)
  TEAE: Productive Cough: 0 n (%)
  TEAE: Rash Maculo-Papular: 0 n (%)
  TEAE: Rhinitis Allergic: 0 n (%)
  TEAE: Rib Fracture: 0 n (%)
  TEAE: Seizure: 0 n (%)
  TEAE: Sepsis: 0 n (%)
  TEAE: Tremor: 0 n (%)
  TEAE: Upper Respiratory Tract Infection: 0 n (%)
  TEAE: Urinary Tract Infection: 0 n (%)
  TEAE: Vaginal Haemorrhage: 0 n (%)
  TEAE: Vomiting: 0 n (%)
  related TEAE: Alopecia: 1 (16.7) n (%)
  related TEAE: Arthralgia: 0 n (%)
  related TEAE: Constipation: 1 (16.7) n (%)
  related TEAE: Diarrhea: 1 (16.7) n (%)
  related TEAE: Dysgeusia: 1 (16.7) n (%)
  related TEAE: Eructation: 1 (16.7) n (%)
  related TEAE: Fatigue: 0 n (%)
  related TEAE: Flatulence: 1 (16.7) n (%)
  related TEAE: Hot Flush: 0 n (%)
  related TEAE: Hyperhidrosis: 0 n (%)
  related TEAE: Nail Disorder: 1 (16.7) n (%)
  related TEAE: Nausea: 1 (16.7) n (%)
  related TEAE: Neutrophil Count Decreased: 2 (33.3) n (%)
  related TEAE: Platelet Count Decreased: 1 (16.7) n (%)
  related TEAE: Tremor: 0 n (%)
  related TEAE: Vomiting: 0 n (%)
600 mg QD (N = 4)
  Patients with Any Compound (1-g) related TEAE: 2 (50.0) n (%)
  Patients with Any TEAE: 2 (50.0) n (%)
  TEAE: Abdominal Distension: 0 n (%)
  TEAE: Abdominal Pain: 0 n (%)
  TEAE: Acute Kidney Injury: 0 n (%)
  TEAE: Adrenal Insufficiency: 0 n (%)
  TEAE: Alopecia: 0 n (%)
  TEAE: Anaemia: 0 n (%)
  TEAE: Anxiety: 0 n (%)
  TEAE: Arthralgia: 0 n (%)
  TEAE: Axillary Vein Thrombosis: 0 n (%)
  TEAE: Back Pain: 1 (25.0) n (%)
  TEAE: Basal Cell Carcinoma: 0 n (%)
  TEAE: Breast Pain: 0 n (%)
  TEAE: Confusional State: 0 n (%)
  TEAE: Constipation: 1 (25.0) n (%)
  TEAE: Cough: 0 n (%)
  TEAE: Covid-19 Pneumonia: 0 n (%)
  TEAE: Dehydration: 0 n (%)
  TEAE: Diarrhoea: 0 n (%)
  TEAE: Dizziness: 0 n (%)
  TEAE: Dysgeusia: 0 n (%)
  TEAE: Dyspepsia: 0 n (%)
  TEAE: Dyspnoea: 0 n (%)
  TEAE: Dysuria: 0 n (%)
  TEAE: Eructation: 0 n (%)
  TEAE: Fall: 0 n (%)
  TEAE: Fatigue: 0 n (%)
  TEAE: Flatulence: 0 n (%)
  TEAE: Fracture: 0 n (%)
  TEAE: Fungal Infection: 0 n (%)
  TEAE: Haematoma: 0 n (%)
  TEAE: Hot Flush: 1 (25.0) n (%)
  TEAE: Hyperglycaemia: 0 n (%)
  TEAE: Hyperhidrosis: 1 (25.0) n (%)
  TEAE: Hypokalaemia: 0 n (%)
  TEAE: Hypotension: 0 n (%)
  TEAE: Influenza Like Illness: 0 n (%)
  TEAE: Insomnia: 0 n (%)
  TEAE: Lower Respiratory Tract Congestion: 0 n (%)
  TEAE: Lymphocyte Count Decreased: 0 n (%)
  TEAE: Muscle Spasm: 0 n (%)
  TEAE: Muscular Weakness: 0 n (%)
  TEAE: Musculoskeletal Stiffness: 0 n (%)
  TEAE: Nail Disorder: 0 n (%)
  TEAE: Nasal Congestion: 0 n (%)
  TEAE: Nausea: 0 n (%)
  TEAE: Neutrophil Count Decreased: 1 (25.0) n (%)
  TEAE: Oedema Peripheral: 0 n (%)
  TEAE: Ophthalmic Migraine: 0 n (%)
  TEAE: Oral Pain: 0 n (%)
  TEAE: Pain In Extremity: 0 n (%)
  TEAE: Pharyngitis: 0 n (%)
  TEAE: Platelet Count Decreased: 0 n (%)
  TEAE: Pleural Effusion: 0 n (%)
  TEAE: Pneumonia: 0 n (%)
  TEAE: Productive Cough: 0 n (%)
  TEAE: Rash Maculo-Papular: 0 n (%)
  TEAE: Rhinitis Allergic: 0 n (%)
  TEAE: Rib Fracture: 0 n (%)
  TEAE: Seizure: 0 n (%)
  TEAE: Sepsis: 0 n (%)
  TEAE: Tremor: 0 n (%)
  TEAE: Upper Respiratory Tract Infection: 0 n (%)
  TEAE: Urinary Tract Infection: 0 n (%)
  TEAE: Vaginal Haemorrhage: 0 n (%)
  TEAE: Vomiting: 0 n (%)
  related TEAE: Alopecia: 0 n (%)
  related TEAE: Arthralgia: 0 n (%)
  related TEAE: Constipation: 1 (25.0) n (%)
  related TEAE: Diarrhea: 0 n (%)
  related TEAE: Dysgeusia: 0 n (%)
  related TEAE: Eructation: 0 n (%)
  related TEAE: Fatigue: 0 n (%)
  related TEAE: Flatulence: 0 n (%)
  related TEAE: Hot Flush: 1 (25.0) n (%)
  related TEAE: Hyperhidrosis: 1 (25.0) n (%)
  related TEAE: Nail Disorder: 0 n (%)
  related TEAE: Nausea: 0 n (%)
  related TEAE: Neutrophil Count Decreased: 1 (25.0) n (%)
  related TEAE: Platelet Count Decreased: 0 n (%)
  related TEAE: Tremor: 0 n (%)
  related TEAE: Vomiting: 0 n (%)
100-600 mg QD
  correlation of TEAE incidence with dose level: did not seem to correlate with increasing dose levels
100-600 mg QD, 37 patients
  dose limiting toxicities: No dose limiting toxicities were observed
Cohort 1 (100 mg QD)
  participants with TEAEs that led to dose interruption: 3 participants
Cohort 1/100 mg QD, patient 1
  CTCAE Grade of TEAE leading to dose interruption: Fall: 2
  Duration of TEAE leading to dose interruption: Fall: 1 days
  Related to Compound (1-g), TEAE leading to dose interruption: Fall: No
Cohort 1/100 mg QD, patient 2
  CTCAE Grade of TEAE leading to dose interruption: Fatigue: 3
  Related to Compound (1-g), TEAE leading to dose interruption: Fatigue: No
Cohort 1/100 mg QD, patient 3
  CTCAE Grade of TEAE leading to dose interruption: Confusional state: 2
  Duration of TEAE leading to dose interruption: Confusional state: 2 days
  Related to Compound (1-g), TEAE leading to dose interruption: Confusional state: No
Cohort 2 (200 mg QD)
  participants with TEAEs that led to dose interruption: 4 participants
[1]
  CTCAE Grade of TEAE leading to dose interruption: Anaemia: 2
  Duration of TEAE leading to dose interruption: Anaemia: 28 days
  Related to Compound (1-g), TEAE leading to dose interruption: Anaemia: No
[2]
  CTCAE Grade of TEAE leading to dose interruption: Anaemia: 3
  Related to Compound (1-g), TEAE leading to dose interruption: Anaemia: No
Cohort 2/200 mg QD, patient 2
  CTCAE Grade of TEAE leading to dose interruption: Fatigue: 2
  CTCAE Grade of TEAE leading to dose interruption: Muscular weakness: 2
  Related to Compound (1-g), TEAE leading to dose interruption: Fatigue: No
  Related to Compound (1-g), TEAE leading to dose interruption: Muscular weakness: No
Cohort 2/200 mg QD, patient 3
  CTCAE Grade of TEAE leading to dose interruption: Seizure: 3
  CTCAE Grade of TEAE leading to dose interruption: Sepsis: 3
  Duration of TEAE leading to dose interruption: Seizure: 20 days
  Duration of TEAE leading to dose interruption: Sepsis: 20 days
  Related to Compound (1-g), TEAE leading to dose interruption: Seizure: No
  Related to Compound (1-g), TEAE leading to dose interruption: Sepsis: No
Cohort 2/200 mg QD, patient 4, first listed event
  CTCAE Grade of TEAE leading to dose interruption: Pain in extremity: 1

Reference: patent US20250381179A1, “CHROMAN-BASED COMPOUNDS FOR TREATING CANCER” (priority 2024, published 2025)
